# Assays:
# Type in all cases: biochemical
# Lm AlaRS = molecular target: T1, Lm AlaRS (Leishmania major, UniProt Q4QBJ3); assay: ATP/PPi exchange; settings: 2 mM ATP, 90 μM alanine, 2 mM [32P]-PPi, 10 mM Mg2+, pH 7.2, 37 °C
# T1 construct: gene LMJF_22_1540; codon-optimised synthetic gene in pTYB2; C-terminal intein tag cleaved off; expressed in E. coli BL21(DE3)
# T1 sequence (Q4QBJ3 1-962): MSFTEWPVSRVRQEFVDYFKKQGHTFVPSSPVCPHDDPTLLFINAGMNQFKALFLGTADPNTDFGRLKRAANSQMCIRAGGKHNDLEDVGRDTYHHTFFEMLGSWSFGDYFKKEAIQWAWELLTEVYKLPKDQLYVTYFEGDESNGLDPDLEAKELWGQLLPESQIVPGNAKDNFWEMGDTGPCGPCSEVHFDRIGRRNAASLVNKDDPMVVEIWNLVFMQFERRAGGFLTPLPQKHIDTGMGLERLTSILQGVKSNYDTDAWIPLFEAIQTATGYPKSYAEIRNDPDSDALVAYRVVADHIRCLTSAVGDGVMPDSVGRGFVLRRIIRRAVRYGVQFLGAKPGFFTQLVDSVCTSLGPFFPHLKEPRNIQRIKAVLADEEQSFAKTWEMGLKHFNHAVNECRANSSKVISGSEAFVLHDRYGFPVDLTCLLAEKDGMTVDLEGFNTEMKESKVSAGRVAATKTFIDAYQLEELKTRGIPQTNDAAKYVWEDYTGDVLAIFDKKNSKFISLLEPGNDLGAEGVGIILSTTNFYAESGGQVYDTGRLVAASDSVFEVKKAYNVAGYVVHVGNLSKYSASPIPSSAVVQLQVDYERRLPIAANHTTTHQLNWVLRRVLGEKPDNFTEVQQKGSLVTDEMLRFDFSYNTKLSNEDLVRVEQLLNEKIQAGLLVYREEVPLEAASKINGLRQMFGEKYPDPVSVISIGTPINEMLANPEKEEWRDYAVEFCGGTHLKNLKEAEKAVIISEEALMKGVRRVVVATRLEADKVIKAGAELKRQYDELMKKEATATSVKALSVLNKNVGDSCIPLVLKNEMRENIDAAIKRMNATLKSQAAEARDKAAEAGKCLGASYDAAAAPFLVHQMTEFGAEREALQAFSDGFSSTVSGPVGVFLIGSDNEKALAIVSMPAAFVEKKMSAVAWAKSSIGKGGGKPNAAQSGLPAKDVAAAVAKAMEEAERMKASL
# human AlaRS [1] = molecular target: T2, human AlaRS (Homo sapiens, UniProt P49588); assay: ATP/PPi exchange; settings: 2 mM ATP, 90 μM alanine, 2 mM [32P]-PPi, 10 mM Mg2+, pH 7.2, 37 °C
# T2 construct: gene AARS1; pET21a, C-terminal 6x-His tag; expressed in E. coli Rosetta(DE3)
# T2 sequence (P49588 1-968): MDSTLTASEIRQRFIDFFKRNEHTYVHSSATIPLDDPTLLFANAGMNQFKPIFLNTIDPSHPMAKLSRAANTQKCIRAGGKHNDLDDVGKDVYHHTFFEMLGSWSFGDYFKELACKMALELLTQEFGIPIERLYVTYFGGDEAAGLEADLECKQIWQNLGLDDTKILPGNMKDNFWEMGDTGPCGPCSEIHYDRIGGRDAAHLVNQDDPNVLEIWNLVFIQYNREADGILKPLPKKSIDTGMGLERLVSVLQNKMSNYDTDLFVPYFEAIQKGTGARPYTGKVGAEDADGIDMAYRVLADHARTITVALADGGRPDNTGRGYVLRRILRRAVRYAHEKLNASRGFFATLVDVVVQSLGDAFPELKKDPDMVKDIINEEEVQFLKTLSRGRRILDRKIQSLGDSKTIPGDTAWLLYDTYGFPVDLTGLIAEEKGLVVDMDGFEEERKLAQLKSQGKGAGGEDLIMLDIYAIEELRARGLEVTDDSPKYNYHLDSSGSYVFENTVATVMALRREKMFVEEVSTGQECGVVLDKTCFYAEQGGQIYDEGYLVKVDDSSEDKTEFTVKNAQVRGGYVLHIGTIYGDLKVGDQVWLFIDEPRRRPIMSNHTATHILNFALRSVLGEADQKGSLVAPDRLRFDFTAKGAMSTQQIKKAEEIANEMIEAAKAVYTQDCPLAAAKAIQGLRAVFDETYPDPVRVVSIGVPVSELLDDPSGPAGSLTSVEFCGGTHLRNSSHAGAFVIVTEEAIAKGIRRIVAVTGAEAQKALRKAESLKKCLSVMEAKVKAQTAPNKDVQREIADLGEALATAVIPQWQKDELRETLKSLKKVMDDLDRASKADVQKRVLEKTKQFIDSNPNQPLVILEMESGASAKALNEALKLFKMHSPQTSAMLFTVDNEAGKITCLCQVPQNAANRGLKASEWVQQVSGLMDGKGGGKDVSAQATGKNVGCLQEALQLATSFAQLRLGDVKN
# Tc AlaRS = molecular target: T3, Tc AlaRS (Trypanosoma cruzi, UniProt Q4D747); assay: aminoacylation of Tc tRNA-Ala with […]-Ala; settings: labelled compound, ATP
# T3 construct: gene Tc00.1047053506863.10; codon-optimised synthetic gene in pET21b; C-terminal 6x-His tag; expressed in E. coli XJb(DE3)
# T3 sequence (Q4D747 1-959): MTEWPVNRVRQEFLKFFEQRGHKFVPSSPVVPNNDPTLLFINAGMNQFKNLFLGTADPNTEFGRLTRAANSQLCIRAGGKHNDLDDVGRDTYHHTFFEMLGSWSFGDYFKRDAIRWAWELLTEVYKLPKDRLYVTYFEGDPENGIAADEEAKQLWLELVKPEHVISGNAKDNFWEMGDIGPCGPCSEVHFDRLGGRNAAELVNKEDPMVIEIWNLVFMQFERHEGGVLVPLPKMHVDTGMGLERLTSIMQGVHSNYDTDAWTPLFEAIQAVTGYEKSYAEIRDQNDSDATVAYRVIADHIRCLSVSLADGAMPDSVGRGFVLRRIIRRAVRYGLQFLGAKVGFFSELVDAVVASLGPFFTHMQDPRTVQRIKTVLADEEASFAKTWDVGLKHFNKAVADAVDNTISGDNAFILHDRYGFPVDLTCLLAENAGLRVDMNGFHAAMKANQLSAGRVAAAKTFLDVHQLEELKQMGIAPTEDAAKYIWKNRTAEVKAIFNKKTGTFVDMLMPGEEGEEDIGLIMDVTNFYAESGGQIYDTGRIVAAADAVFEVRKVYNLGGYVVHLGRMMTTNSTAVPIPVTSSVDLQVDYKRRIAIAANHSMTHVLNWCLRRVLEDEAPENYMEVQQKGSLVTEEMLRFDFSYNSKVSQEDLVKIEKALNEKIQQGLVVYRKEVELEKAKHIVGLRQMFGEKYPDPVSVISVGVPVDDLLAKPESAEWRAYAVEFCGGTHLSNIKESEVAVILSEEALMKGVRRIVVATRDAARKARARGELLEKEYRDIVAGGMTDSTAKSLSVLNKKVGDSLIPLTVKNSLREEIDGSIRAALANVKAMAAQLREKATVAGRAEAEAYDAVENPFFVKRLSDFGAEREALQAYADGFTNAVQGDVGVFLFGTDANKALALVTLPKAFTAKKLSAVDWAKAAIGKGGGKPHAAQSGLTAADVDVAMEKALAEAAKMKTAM
# human AlaRS [2] = molecular target: T2, human AlaRS; assay: ATP/PPi exchange (amino acid activation); settings: 2 mM ATP, 2 mM [32P]-PPi, 10 mM Mg2+, pH 7.2, 37 °C, 90 μM alanine
# Lm ThrRS = molecular target: T4, Lm ThrRS (Leishmania major, UniProt E9AEW4); assay: aminoacylation of Lm tRNA-Thr with […]-Thr; settings: labelled compound, ATP
# T4 construct: gene LMJF_35_1410; codon-optimised synthetic gene in pTYB2; C-terminal intein tag cleaved off; expressed in E. coli BL21(DE3)
# T4 sequence (E9AEW4 1-787): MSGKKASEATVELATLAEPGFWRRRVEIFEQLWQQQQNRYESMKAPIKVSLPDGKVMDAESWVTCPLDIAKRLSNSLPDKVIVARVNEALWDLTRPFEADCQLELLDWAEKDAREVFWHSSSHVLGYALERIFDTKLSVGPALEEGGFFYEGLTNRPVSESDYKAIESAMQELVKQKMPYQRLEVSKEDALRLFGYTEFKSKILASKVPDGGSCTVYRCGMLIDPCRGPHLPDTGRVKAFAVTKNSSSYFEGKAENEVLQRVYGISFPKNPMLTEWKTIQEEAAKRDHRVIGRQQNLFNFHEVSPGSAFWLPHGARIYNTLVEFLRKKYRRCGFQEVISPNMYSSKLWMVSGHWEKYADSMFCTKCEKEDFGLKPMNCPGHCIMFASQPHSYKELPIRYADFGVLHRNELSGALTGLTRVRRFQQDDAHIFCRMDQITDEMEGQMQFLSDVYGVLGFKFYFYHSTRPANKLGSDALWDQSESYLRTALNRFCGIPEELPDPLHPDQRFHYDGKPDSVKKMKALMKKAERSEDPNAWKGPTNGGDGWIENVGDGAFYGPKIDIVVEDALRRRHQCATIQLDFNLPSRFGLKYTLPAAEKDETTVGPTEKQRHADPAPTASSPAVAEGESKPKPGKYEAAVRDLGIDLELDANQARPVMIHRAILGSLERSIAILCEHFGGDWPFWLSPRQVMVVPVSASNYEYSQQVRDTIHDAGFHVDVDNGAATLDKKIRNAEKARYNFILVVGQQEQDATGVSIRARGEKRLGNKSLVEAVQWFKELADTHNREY
compound,measurement,setting,value
Nc1ncnc2c1ncn2[C@@H]1O[C@H](COP(=O)(O)OP(=O)(O)OP(=O)(O)O)[C@@H](O)[C@H]1O [ATP],ATP/PPi exchange,Lm AlaRS,we used pyrophosphate exchange to monitor ATP-dependent amino acid activation
same,ATP/PPi exchange,human AlaRS [1],we used pyrophosphate exchange to monitor ATP-dependent amino acid activation
C[C@H](N)C(=O)O [alanine],aminoacylation of Tc tRNA-Ala with [14C]-Ala,Tc AlaRS,aminoacylation inhibition assay using Tc AlaRS and tRNA^Ala
same,ATP/PPi exchange (amino acid activation),human AlaRS [2],Treatment of the human AlaRS enzyme with the MNP inhibitors had no effect on amino acid activation
C[C@@H](O)[C@H](N)C(=O)O [threonine],aminoacylation of Lm tRNA-Thr with [14C]-Thr,Lm ThrRS,re-screened against Lm Threonyl-tRNA synthetase (ThrRS) and tRNA^Thr aminoacylation

# From publication PMC7046186, “Targeting tRNA-synthetase interactions towards novel therapeutic discovery against eukaryotic pathogens” (PLoS Neglected Tropical Diseases, 2020)
